# According to US9801895B1, “Cream formulation with amphotericin B and oil in water useful for topical application to mucous tissue and skin against diseases produced by leishmaniasis” (priority 2013, dated 2017):
# Experiments:
# [1] = test system: 3T3; assay: In vitro 3T3 NRU phototoxicity test (OECD Guideline No 432); assay type: cell-based
# Source text: Phototoxicity/Photosensitisation Potential: The OECD Guideline No 432 was Followed.
# [2] = test system: reconstructed human tissue model (RHE); assay type: cell-based
# Source text: In Vitro Skin Corrosion Test (Adapted from OECD Guideline No. 431):
# To evaluate skin corrosion a reconstructed human tissue model (RHE) in three dimensions was used.
# [3] = In vivo toxicity in infected hamsters (body weight, serum analytes, histopathology); parameters: species or system Golden hamsters (Mesocricetus aerates)
# Experimental: (§1) The evaluation of the therapeutic response and toxicity of the cream formulation was carried out in the hamster model for cutaneous leishmaniasis (Robledo et al, 2012) using the Golden hamsters (Mesocricetus aerates). Animals were handled under the same micro and macro environmental conditions. Experimental groups were named accordingly: A. Cream product formulation once a day; B. Cream product formulation twice a day; C. Placebo once a day and D. Placebo twice a day. Additionally, two groups of animals were used as control groups. One of them (E) was used to evaluate meglumine antimoniate as a control medicine at the curative (120 mg/kg day×10 days) and the other group (F) were infected and untreated animals.
# Hamsters were weighed weekly from the beginning of the experiment until three months after the end of the treatment.
# Effect of Treatments on Serum Levels of BUN, Creatinine and ALT:
# [4] = rat, in vivo
# Source text: In Vivo Skin Absorption/Penetration. This Study Followed the OECD Test Guideline 427.
# In this method the test substance is applied to the clipped skin of animals and is allowed to remain in contact with the skin for a fixed period of time under a non-occlusive cover to prevent ingestion of the test preparation. At the end of the exposure time the cover is removed and the skin is cleaned with an appropriate cleansing agent, the cover and the cleansing materials are retained for analysis and a fresh cover applied. Animals were exposed to the test preparation during 8 hours. One group was killed at the end of the exposure period. Other group was sacrificed at 48 hours and a third group was sacrificed at 72 hours after the end of exposure. The samples were assayed for concentration of amphotericin B by HPLC and the degree of percutaneous absorption was estimated.
# Dosage and treatment groups: 12 animals were used, divided into three groups, which were applied the product under study. Four animals for each time interval: 8 h, 48 h and 72 h.
# Environmental conditions and housing: The animals were randomly distributed in individual cages. During the experiment, water management and food was ad libitum. […]
# [5] = biphasic elimination described for amphotericin B; cited from earlier work
# [6] = test system: Reconstructed Human corneal Epithelium tissue (HCE); assay type: cell-based
# Experimental: In Vitro Eye Irritation (Adapted from OECD Guideline No. 439):
# For evaluation of eye irritation (cornea tissue) we used the Acute Eye irritation test using Reconstructed Human corneal Epithelium tissue (HCE).
# Each test substance (cream product formulation, placebo, positive and negative controls) was applied topically. After 10 minutes, 2 hours and 24 hours of treatment cell viability was determined using MTT.
# [7] = test system: Trypanosoma cruzi (T. cruzi); settings: given soon after infection at the onset of the acute phase; cited from earlier work
# [8] = test system: L. amazonensis; assay: In vivo therapeutic response in the hamster model for cutaneous leishmaniasis; parameters: species or system Golden hamsters (Mesocricetus aerates); settings: intramuscular, once a day x 10 days, 120 mg/kg day
# Experimental: In Vivo Therapeutic Response of Cream Product Formulation on L. amazonensis
# as §1
# The effectiveness of each treatment was assessed comparing the lesion sizes prior to and after treatments, using the following score system: cure (healing of 100% area and complete disappearance of the lesion); clinical improvement (reducing the size of the lesion in >30% of the area); clinical failure (reduction in the size of the lesion lower than 30% or increase in the size of the lesion); relapse (reactivation of lesion after cure).
compound,measurement,setting,value
C[C@H]1c2cccc(O)c2C(=O)C2=C(O)[C@]3(O)C(=O)C(C(N)=O)=C(O)[C@@H](N(C)C)[C@@H]3[C@@H](O)[C@@H]21 [doxycycline],phototoxicity classification,[1],phototoxic
same,PIF,[1]; exposure to light,9.3
"C[C@@H]1[C@H](O)[C@@H](C)/C=C/C=C/C=C/C=C/C=C/C=C/C=C/[C@H](O[C@@H]2O[C@H](C)[C@@H](O)[C@H](N)[C@@H]2O)C[C@@H]2O[C@](O)(C[C@@H](O)C[C@@H](O)[C@H](O)CC[C@@H](O)C[C@@H](O)CC(=O)O[C@H]1C)C[C@H](O)[C@H]2C(=O)O [amphotericin B, Amphotericin B]",skin corrosion,[2],does not show skin corrosion
same,kidney histopathology,[3],no significant changes
same,liver histopathology,[3]; one or two applications per day,no lesions or significant changes
same,amphotericin B in urine,[4],not detected
same,"elimination half life, last elimination phase",[5],15 days
same,eye (corneal) irritation,[6],no corneal irritation
O=C(Cn1ccnc1[N+](=O)[O-])NCc1ccccc1 [benznidazole],effectiveness in curing the disease,[7],~100%
meglumine antimoniate,efficacy,[8],71%
